# Article PMC5564600 (Oncotarget, 2017)
# What was measured:
# Format in all cases: binding
# [1] = target: T1, catalytic JH1 domain of JAK2 (Homo sapiens, UniProt O60674); experiment: KINOMEscan, JAK2 JH1 domain; details: for remaining binding at 1 µM / remaining binding at 10 µM: kinase JAK2(JH1domain-catalytic); for remaining binding at 1 µM: read-out: % of control at 1 µM; for remaining binding at 10 µM: read-out: % of control at 10 µM
# T1 construct: the catalytic JH1 domains of JAK1 and JAK2; purchased Ambit Biosciences (scanMAXX KINOMEscan)
# T1 sequence (O60674 849-1124 limits assumed): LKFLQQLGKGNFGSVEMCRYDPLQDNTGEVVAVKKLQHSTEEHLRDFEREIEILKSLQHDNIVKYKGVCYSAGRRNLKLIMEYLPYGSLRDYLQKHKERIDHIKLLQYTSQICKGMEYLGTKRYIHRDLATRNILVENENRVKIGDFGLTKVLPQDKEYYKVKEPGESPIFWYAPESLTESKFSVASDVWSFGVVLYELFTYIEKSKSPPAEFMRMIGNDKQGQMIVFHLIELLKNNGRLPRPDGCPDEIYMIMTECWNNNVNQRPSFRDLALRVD
# panel of 442 kinases [2] = target: T2, panel of 442 kinases (Homo sapiens, UniProt P35968); experiment: biochemical; details: kinase VEGFR2; for remaining activity at 1 µM: read-out: VEGFR2 (% of control at 1 µM)
# T2 construct: purchased Ambit Biosciences (scanMAXX KINOMEscan)
# T2 sequence (P35968 20-1356): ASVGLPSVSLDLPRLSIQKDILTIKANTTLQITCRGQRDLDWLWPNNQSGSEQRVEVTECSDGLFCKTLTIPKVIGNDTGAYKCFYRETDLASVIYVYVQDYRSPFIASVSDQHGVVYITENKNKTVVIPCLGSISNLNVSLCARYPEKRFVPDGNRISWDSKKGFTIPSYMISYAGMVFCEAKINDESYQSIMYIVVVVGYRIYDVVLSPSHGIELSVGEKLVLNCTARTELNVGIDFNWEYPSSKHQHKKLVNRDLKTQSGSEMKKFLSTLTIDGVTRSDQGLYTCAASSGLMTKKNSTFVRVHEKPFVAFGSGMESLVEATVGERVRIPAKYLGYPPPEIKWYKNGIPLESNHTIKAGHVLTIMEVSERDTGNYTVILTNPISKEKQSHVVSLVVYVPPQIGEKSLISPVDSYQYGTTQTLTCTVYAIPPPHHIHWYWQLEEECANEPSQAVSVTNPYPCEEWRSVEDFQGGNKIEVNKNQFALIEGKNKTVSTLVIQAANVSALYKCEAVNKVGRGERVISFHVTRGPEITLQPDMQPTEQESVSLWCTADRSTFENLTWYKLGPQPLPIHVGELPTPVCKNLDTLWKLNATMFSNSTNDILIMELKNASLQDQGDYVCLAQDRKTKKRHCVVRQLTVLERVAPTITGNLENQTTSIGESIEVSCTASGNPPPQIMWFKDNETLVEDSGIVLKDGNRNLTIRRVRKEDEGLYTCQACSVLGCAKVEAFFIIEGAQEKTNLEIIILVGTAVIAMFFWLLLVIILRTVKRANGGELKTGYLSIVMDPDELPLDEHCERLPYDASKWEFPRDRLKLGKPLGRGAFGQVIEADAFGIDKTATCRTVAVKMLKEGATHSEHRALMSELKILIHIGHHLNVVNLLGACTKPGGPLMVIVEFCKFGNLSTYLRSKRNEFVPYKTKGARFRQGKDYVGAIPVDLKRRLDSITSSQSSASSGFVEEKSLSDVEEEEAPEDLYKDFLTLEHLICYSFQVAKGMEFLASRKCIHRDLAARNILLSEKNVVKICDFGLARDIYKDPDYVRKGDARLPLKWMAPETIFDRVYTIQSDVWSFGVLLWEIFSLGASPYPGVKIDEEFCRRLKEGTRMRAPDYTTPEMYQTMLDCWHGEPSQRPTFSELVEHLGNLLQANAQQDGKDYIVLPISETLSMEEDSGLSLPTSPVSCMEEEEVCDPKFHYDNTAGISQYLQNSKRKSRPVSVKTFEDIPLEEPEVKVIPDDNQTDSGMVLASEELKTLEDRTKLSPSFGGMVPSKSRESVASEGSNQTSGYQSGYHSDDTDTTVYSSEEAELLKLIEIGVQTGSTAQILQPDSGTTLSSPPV
# panel of 442 kinases [3] = target: T3, panel of 442 kinases (Homo sapiens, UniProt P0C264); experiment: biochemical; details: kinase SgK110; for remaining activity at 1 µM: read-out: SgK110 (% of control at 1 µM)
# T3 construct: purchased Ambit Biosciences (scanMAXX KINOMEscan)
# T3 sequence (P0C264 1-359): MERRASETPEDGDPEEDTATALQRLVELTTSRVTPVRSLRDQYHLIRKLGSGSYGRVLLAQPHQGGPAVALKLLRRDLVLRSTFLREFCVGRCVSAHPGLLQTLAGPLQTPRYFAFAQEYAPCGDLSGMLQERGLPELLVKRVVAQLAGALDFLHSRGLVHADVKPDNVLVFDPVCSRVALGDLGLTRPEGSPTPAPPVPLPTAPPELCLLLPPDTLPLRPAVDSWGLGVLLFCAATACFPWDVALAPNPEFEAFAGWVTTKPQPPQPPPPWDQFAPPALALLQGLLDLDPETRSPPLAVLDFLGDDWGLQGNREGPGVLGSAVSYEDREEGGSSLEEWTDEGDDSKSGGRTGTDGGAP
# panel of 442 kinases [4] = target: T4, panel of 442 kinases (Homo sapiens, UniProt Q13557); experiment: biochemical; details: CAMK2D; for remaining activity at 1 µM: read-out: % of control at 1 µM
# T4 construct: purchased Ambit Biosciences (scanMAXX KINOMEscan)
# T4 sequence (Q13557 whole entry): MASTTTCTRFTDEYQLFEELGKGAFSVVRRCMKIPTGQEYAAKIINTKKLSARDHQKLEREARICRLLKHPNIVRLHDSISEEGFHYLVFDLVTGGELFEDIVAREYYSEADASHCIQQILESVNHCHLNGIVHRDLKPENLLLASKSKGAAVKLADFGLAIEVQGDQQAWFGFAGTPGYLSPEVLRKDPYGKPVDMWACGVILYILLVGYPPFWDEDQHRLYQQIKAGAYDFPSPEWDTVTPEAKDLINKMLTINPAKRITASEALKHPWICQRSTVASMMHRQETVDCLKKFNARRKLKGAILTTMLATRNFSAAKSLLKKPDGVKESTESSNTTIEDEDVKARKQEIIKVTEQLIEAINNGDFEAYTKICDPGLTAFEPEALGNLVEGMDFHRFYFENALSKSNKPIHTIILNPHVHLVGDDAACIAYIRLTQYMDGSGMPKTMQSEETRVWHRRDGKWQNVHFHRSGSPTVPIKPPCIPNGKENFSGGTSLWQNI
# [5] = target: T5, pseudokinase JH2 domain of JAK1 (Homo sapiens, UniProt P23458); experiment: KINOMEscan, JAK1 JH2 domain; details: for remaining binding at 1 µM / remaining binding at 10 µM: kinase JAK1(JH2domain-pseudokinase); for remaining binding at 1 µM: read-out: % of control at 1 µM; for remaining binding at 10 µM: read-out: % of control at 10 µM
# T5 construct: the pseudokinase JH2 domain of JAK1 (89%); purchased Ambit Biosciences (scanMAXX KINOMEscan)
# T5 sequence (P23458 583-855 limits assumed): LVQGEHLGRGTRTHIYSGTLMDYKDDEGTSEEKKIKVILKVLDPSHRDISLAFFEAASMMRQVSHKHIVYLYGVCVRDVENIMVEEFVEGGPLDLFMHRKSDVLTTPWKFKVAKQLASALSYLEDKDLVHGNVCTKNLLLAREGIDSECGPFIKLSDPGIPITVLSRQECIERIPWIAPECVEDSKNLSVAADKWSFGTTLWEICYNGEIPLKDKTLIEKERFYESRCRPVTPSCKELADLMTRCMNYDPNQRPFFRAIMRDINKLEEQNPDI
# PIK3C2G = target: T6, PIK3C2G (Homo sapiens, UniProt O75747); experiment: KINOMEscan, PIK3C2G; details: for remaining binding at 1 µM / remaining binding at 10 µM: kinase PIK3C2G; for remaining binding at 1 µM: read-out: % of control at 1 µM; for remaining binding at 10 µM: read-out: % of control at 10 µM
# T6 construct: purchased Ambit Biosciences (scanMAXX KINOMEscan)
# T6 sequence (O75747 1-1486): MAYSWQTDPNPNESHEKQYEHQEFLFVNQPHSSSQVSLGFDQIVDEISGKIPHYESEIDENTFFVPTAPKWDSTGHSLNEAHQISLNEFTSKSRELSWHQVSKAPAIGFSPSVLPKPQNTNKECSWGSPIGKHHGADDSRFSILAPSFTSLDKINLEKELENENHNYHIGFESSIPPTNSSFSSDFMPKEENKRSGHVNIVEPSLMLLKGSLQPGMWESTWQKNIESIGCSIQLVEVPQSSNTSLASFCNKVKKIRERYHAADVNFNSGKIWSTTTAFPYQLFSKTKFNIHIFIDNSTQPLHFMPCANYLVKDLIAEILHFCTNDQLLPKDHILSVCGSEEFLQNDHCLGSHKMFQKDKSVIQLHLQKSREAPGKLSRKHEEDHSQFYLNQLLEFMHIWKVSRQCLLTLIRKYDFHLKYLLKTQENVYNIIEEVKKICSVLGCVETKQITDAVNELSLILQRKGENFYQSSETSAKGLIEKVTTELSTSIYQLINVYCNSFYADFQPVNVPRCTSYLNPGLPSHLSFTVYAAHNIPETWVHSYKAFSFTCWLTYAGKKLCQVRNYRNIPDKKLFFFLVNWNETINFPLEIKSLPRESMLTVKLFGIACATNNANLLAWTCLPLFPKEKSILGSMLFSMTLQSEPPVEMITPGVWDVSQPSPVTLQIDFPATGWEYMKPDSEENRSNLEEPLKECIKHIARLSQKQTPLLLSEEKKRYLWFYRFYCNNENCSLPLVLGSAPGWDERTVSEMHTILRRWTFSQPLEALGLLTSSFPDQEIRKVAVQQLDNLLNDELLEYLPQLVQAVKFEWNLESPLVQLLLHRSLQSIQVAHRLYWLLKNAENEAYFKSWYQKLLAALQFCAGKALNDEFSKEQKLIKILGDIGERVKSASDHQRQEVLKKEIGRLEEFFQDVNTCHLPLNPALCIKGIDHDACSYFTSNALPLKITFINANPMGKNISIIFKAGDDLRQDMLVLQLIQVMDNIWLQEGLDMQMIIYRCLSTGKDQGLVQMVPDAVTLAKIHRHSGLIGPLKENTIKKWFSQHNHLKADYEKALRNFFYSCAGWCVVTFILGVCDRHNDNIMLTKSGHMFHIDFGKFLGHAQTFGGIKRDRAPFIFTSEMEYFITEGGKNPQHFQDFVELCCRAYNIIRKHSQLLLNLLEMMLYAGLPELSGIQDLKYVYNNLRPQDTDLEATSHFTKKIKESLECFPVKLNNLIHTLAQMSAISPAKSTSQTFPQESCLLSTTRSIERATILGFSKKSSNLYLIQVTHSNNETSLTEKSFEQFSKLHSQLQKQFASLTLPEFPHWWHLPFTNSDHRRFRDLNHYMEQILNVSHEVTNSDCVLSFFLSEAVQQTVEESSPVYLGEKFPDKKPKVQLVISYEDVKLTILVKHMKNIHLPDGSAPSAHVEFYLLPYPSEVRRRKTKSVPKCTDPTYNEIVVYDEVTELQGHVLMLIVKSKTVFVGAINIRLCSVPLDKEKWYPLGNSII
# CLK2 = target: T7, CLK2 (Homo sapiens, UniProt P49760); experiment: KINOMEscan, CLK2; details: for remaining binding at 1 µM: read-out: % of control at 1 µM
# T7 construct: purchased Ambit Biosciences (scanMAXX KINOMEscan)
# T7 sequence (P49760 whole entry): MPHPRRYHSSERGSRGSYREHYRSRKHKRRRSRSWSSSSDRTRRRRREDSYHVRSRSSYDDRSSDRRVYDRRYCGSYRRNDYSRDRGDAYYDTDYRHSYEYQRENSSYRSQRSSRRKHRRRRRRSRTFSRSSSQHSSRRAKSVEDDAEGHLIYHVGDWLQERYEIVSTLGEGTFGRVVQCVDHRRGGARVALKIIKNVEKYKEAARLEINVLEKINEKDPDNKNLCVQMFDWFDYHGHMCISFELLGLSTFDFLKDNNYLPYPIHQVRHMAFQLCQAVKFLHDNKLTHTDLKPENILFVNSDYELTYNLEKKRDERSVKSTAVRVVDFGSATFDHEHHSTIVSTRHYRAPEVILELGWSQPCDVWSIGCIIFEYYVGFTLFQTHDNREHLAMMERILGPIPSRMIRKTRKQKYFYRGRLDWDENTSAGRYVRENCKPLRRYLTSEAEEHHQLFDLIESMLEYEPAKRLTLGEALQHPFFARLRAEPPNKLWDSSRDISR
# G2019S mutant of LRRK2 = target: T8, G2019S mutant of LRRK2 (Homo sapiens, UniProt Q5S007, G2019S); experiment: KINOMEscan, LRRK2 G2019S; details: for remaining binding at 1 µM / remaining binding at 10 µM: kinase LRRK2(G2019S); for remaining binding at 1 µM: read-out: % of control at 1 µM; for remaining binding at 10 µM: read-out: % of control at 10 µM
# T8 construct: purchased Ambit Biosciences (scanMAXX KINOMEscan)
# PIK3C2B = target: T9, PIK3C2B (Homo sapiens, UniProt O00750); experiment: KINOMEscan, PIK3C2B; details: for remaining binding at 1 µM / remaining binding at 10 µM: kinase PIK3C2B; for remaining binding at 1 µM: read-out: % of control at 1 µM; for remaining binding at 10 µM: read-out: % of control at 10 µM
# T9 construct: purchased Ambit Biosciences (scanMAXX KINOMEscan)
# T9 sequence (O00750 whole entry): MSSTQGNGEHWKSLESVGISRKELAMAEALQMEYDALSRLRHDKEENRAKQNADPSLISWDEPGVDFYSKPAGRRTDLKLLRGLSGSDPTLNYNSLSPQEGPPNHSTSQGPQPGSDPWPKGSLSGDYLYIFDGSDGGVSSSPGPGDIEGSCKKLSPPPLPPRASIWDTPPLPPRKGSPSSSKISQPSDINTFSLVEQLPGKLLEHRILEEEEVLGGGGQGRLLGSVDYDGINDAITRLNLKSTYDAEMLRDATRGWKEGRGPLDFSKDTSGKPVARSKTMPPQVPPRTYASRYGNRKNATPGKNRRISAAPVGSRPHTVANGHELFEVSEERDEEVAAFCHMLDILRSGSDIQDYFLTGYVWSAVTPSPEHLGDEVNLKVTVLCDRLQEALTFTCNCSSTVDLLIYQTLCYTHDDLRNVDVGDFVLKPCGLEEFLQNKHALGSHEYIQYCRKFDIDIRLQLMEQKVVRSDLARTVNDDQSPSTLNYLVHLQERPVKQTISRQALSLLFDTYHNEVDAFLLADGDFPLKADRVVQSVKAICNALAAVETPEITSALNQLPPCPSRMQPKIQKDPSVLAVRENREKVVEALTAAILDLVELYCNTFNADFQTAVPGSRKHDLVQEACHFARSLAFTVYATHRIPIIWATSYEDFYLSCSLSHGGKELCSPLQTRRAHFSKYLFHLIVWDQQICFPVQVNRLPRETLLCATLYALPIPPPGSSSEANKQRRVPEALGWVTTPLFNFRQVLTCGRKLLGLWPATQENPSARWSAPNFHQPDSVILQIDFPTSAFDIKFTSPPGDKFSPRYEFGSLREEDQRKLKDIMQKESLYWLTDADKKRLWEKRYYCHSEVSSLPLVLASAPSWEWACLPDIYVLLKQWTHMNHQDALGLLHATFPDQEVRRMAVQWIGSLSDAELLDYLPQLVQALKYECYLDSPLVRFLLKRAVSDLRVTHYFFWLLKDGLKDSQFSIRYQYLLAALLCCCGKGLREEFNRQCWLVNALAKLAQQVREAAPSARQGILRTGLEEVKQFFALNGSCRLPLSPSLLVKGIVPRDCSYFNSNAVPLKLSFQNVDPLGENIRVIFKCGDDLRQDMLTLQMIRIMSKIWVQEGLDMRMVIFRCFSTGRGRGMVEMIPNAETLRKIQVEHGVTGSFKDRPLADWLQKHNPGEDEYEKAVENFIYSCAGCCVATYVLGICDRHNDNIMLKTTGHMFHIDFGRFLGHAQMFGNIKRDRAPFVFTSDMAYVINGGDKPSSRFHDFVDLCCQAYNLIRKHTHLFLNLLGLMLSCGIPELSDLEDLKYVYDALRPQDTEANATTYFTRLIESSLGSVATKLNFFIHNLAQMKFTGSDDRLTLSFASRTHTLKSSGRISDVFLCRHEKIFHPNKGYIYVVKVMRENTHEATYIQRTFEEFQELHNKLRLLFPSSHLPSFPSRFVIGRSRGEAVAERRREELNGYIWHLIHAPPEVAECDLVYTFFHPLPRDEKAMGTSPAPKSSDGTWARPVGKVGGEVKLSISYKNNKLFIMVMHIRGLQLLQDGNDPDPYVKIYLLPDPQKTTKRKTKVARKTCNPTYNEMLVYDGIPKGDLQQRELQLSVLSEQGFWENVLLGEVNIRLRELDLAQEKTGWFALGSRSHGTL
# CLK4 = target: T10, CLK4 (Homo sapiens, UniProt Q9HAZ1); experiment: KINOMEscan, CLK4; details: for remaining binding at 1 µM: read-out: % of control at 1 µM
# T10 construct: purchased Ambit Biosciences (scanMAXX KINOMEscan)
# T10 sequence (Q9HAZ1 whole entry): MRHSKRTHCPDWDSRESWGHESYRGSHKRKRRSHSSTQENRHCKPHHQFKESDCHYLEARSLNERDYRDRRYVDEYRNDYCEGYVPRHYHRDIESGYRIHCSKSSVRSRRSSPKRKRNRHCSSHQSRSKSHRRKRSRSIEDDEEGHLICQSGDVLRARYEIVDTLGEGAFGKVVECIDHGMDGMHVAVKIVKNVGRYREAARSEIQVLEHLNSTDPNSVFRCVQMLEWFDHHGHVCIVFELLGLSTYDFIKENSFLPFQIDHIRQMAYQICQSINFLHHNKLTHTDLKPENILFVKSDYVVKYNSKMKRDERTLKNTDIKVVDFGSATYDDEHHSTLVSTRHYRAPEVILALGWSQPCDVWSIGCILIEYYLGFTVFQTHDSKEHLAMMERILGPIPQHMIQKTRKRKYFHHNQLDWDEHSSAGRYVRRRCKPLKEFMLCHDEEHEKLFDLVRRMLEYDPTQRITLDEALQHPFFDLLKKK
# CLK1 = target: T11, CLK1 (Homo sapiens, UniProt P49759); experiment: KINOMEscan, CLK1; details: for remaining binding at 1 µM: read-out: % of control at 1 µM
# T11 construct: purchased Ambit Biosciences (scanMAXX KINOMEscan)
Compound,remaining binding at 1 µM [1] [%],remaining binding at 10 µM [1] [%],remaining activity at 1 µM (panel of 442 kinases [2]) [%],remaining activity at 1 µM (panel of 442 kinases [3]) [%],remaining activity at 1 µM (panel of 442 kinases [4]) [%],remaining binding at 1 µM [5] [%],remaining binding at 10 µM [5] [%],remaining binding at 1 µM (PIK3C2G) [%],remaining binding at 10 µM (PIK3C2G) [%],remaining binding at 1 µM (CLK2; CLK2) [%],remaining binding at 1 µM (G2019S mutant of LRRK2) [%],remaining binding at 10 µM (G2019S mutant of LRRK2) [%],remaining binding at 1 µM (PIK3C2B) [%],remaining binding at 10 µM (PIK3C2B) [%],remaining binding at 1 µM (CLK4; CLK4) [%],remaining binding at 1 µM (CLK1; CLK1) [%],off-target binding to PIK3C2G (PIK3C2G; 1 μM),off-target binding to PIK3C2B (PIK3C2B; 1 μM),also measured
Nc1cc(C(F)(F)F)c(-c2cc(N3CCOCC3)nc(N3CCOCC3)n2)cn1 [Buparlisib],63,79,87,91,100,89,76,97,35,29,88,80,97,100,38,42,–,–,"remaining activity at 10 µM (panel of 442 kinases [2]; 10 µM, read-out: VEGFR2 (% of control at 10 µM)): 100%; remaining activity at 10 µM (panel of 442 kinases [3]; 10 µM, read-out: SgK110 (% of control at 10 µM)): 100%; remaining activity at 10 µM (panel of 442 kinases [4]; 10 µM, read-out: % of control at 10 µM): 100%; binding to CLK2 (CLK2; 10 μM): > 80%; remaining binding at 10 µM (CLK2; CLK2, 10 µM, read-out: % of control at 10 µM): 18%; binding to CLK4 (CLK4; 10 μM): > 80%; remaining binding at 10 µM (CLK4; CLK4, 10 µM, read-out: % of control at 10 µM): 13%; binding to CLK1 (CLK1; 10 μM): > 80%; remaining binding at 10 µM (CLK1; CLK1, 10 µM, read-out: % of control at 10 µM): 5.3%"
"Cn1c(=O)n(-c2ccc(C(C)(C)C#N)cc2)c2c3cc(-c4cnc5ccccc5c4)ccc3ncc21 [Dactolisib, 2-methyl-2-[4-(3-methyl-2-oxo-8-quinolin-3-yl-2,3-dihydroimidazo[4,5-c]quinolin-1-yl)-phenyl] propionitrile]",8.2,–,100,100,79,43,–,0,–,81,53,–,9.9,–,12,13,–,–,inhibition at 1 µM ([1]; 1 μM): > 80%; inhibition at 1 µM (PIK3C2G; 1 μM): > 80%; inhibition at 1 µM (PIK3C2B; 1 μM): > 80%; inhibition at 1 µM (CLK4; 1 μM): > 80%; inhibition at 1 µM (CLK1; 1 μM): > 80%
COc1ncc(-c2ccc3nccc(-c4ccnnc4)c3c2)cc1NS(=O)(=O)c1ccc(F)cc1F [Omipalisib],90,–,78,100,100,57,–,0,–,92,87,–,0,–,100,96,non-selective,non-selective,–
"CS(=O)(=O)N1CCN(Cc2cc3nc(-c4cccc5[nH]ncc45)nc(N4CCOCC4)c3s2)CC1 [Pictilisib, 2-(1H-indazol-4-yl)-6-(4-methanesulfonyl-piperazin-1-ylmethyl)-4-morpholin-4-yl-t hieno[3,2-d]pyrimidine]",100,26,–,–,–,11,0.85,32,2.1,–,82,51,54,0.45,–,–,–,–,inhibition at 1 µM ([5]; 1 μM): 89%; off-target activity against PIK3C2G (PIK3C2G; 10 μM): active; off-target activity against PIK3C2B (PIK3C2B; 10 μM): active
"FC(F)c1nc2ccccc2n1-c1nc(N2CCOCC2)nc(N2CCOCC2)n1 [ZSTK474, 2-(difluoromethyl)-1-[4,6-di(4-morpholinyl)-1,3,5-triazin-2-yl]-1H-benzimidazole]",100,–,100,100,88,100,–,0,–,100,0.3,–,0.85,–,96,100,high binding affinity,high binding affinity,binding to LRRK2 G2019S (G2019S mutant of LRRK2; 1 μM): 99.7%
